In the oligonucleotide strings, read from the 5' end, every base follows the letter of its sugar. An asterisk marks phosphorothioate; unmarked linkages are phosphodiester. Other units and linkages are bracketed, terminal groups are in braces. A string of capitals states the bases alone. e = 2'-O-(2-methoxyethyl) (MOE); [5mC] = 5-methylcytosine; d = 2'-deoxy (DNA)
Test system: HeLa cells
Assay: Cell cycle assay in HeLa cells
Format: cell-based, human
Settings: for % cells aneuploid / % cells in cell cycle phase G1 / % cells in cell cycle phase G2/M / % cells in cell cycle phase S / % cells in cell cycle phase subG1 / % cells in cell cycle phase: G1 / % cells in cell cycle phase: G2/M / % cells in cell cycle phase: S / % cells in cell cycle phase: aneuploid / % cells in cell cycle phase: subG1 / % cells in cell cycle phase aneuploid: HeLa cells; for % cells in cell cycle phase: G1 / % cells in cell cycle phase: G2/M / % cells in cell cycle phase: S / % cells in cell cycle phase: aneuploid / % cells in cell cycle phase: subG1: 48 hours after treatment, relative to untreated control (UTC=100)
Method: In some embodiments, HeLa cells were plated on collagen-coated 24-well plates at 50,000-60,000 cells per well, and allowed to attach to wells overnight. In some embodiments, HeLa cells were synchronized by double thymidine block (cells were washed three times with PBS, then grown in 10% FBS containing 2 mM thymidine; then 19 hours later, cells were washed three times in PBS, 10% FBS for 9 hours; cells were then incubated in 10% FBS, 2 mM thymidine for 15 hours; then washed three times with PBS, 10% FBS and samples were taken every two hours over a 16 hour period). A portion of each time sample was fixed with ethanol and treated with propidium iodide and subjected to FACs analysis for determination of the percentage of cells in each phase of the cell cycle. […] HeLa cells treated with 10 μM cisplatin or 100 ng/ml nocodazole were used as controls for G1-phase and late G2/M-phases, respectively. From the remaining portion of each of these time samples, total RNA was isolated and used to assess the expression of cell cycle marker mRNAs using the real-time RT-PCR methods and/or used to screen microarrays to assess the expression of miRNAs over the course of the cell cycle. It was observed that several miRNAs are expressed in a cell-cycle-dependent manner. Shown in Table 30 are the mRNA levels of the E2F1 transcription factor and topoisomerase 2A (Top2A), which vary over the course of the cell cycle and can be used for comparison to the experimental groups for the confirmation of cell cycle phase. Data are an average of three trials.
In some embodiments, HeLa cells were also treated with oligomeric compounds targeting miRNAs. […] The medium was removed from the plates. Each well was washed in 250 μl of PBS. […] Control cells received LIPOFECTIN™ only. […] After 24 hours (Table 31) or 48 hours (Table 32), cells were prepared for flow cytometry analysis to generate a cell cycle profile. The cell cycle profile was analyzed with the ModFit program (Verity Software House, Inc., Topsham Me.).
The random-mer ISIS 29848 (SEQ ID NO: 737) was used as a negative control, and ISIS 183891 (SEQ ID NO: 847), targeting kinesin-like 1/Eg5, was included as a positive control. Data are expressed as percentage of cells in each phase relative to the untreated control (UTC); values above 100 are considered to indicate a delay or arrest in that phase of the cell cycle. […] In some cases, the same oligomeric compound was tested in repeated experiments.
In accordance with the present invention, certain oligomeric compounds targeting miRNAs were selected for dose response studies. Using the cell cycle assay described above, the cell cycle profiles of HeLa or A549 cells treated with varying concentrations of oligomeric compounds of the present invention were assessed.
HeLa cells were treated with 25-, 50-, 100- or 150 nM of the oligomeric compounds ISIS
Numbers 327902 (SEQ ID NO: 320) and 328383 (SEQ ID NO: 492), both targeted against mir-192, and ISIS 327905 (SEQ ID NO: 323), targeting mir-205, and ISIS 328403 (SEQ ID NO: 512), targeting mir-106. Cells treated with increasing concentrations of oligomeric compounds were compared to untreated cells, to assess the dose-dependency of the observed delay or arrest. The random-mer ISIS 29848 was used as a negative control. Cells were prepared for flow cytometry 48-hours after oligonucleotide treatment, as described, supra.

[1] = 150 nM oligomeric compound, 24 hours, relative to untreated control (UTC = 100)
[2] = 150 nM, 48 hours, relative to untreated control

Row | Substance | % cells aneuploid [1] [%] | % cells in cell cycle phase G1 [1] [%] | % cells in cell cycle phase G2/M [1] [%] | % cells in cell cycle phase S [1] [%] | % cells in cell cycle phase subG1 [1] [%] | % cells in cell cycle phase: G1 (150 nM oligomeric compound) [%] | % cells in cell cycle phase: G2/M (150 nM oligomeric compound) [%] | % cells in cell cycle phase: S (150 nM oligomeric compound) [%] | % cells in cell cycle phase: aneuploid (150 nM oligomeric compound) [%] | % cells in cell cycle phase: subG1 (150 nM oligomeric compound) [%] | chromosome missegregation (subG1 or aneuploid DNA content) (HeLa, 150 nM, 24-hour and 48-hour timepoints) | % cells in cell cycle phase G1 [2] [%] | % cells in cell cycle phase G2/M [2] [%] | % cells in cell cycle phase S [2] [%] | % cells in cell cycle phase aneuploid [2] [%] | % cells in cell cycle phase subG1 [2] [%]
1 | 338826 (antisense CGGATCCTGTTACCTCACCA; all 2'-MOE, all phosphorothioate, methylation of C not given here) [compound 338826] | 138 | 148 | 90 | 79 | 145 | 61 | 182 | 124 | 137 | 696 | – | – | – | – | – | –
2 | 341785 (antisense GGAGTGAAGACACGGAGCCAGA; all 2'-MOE, all phosphorothioate, methylation of C not given here) [compound 341785] | 158 | 152 | 53 | 92 | 125 | 82 | 116 | 126 | 166 | 1148 | – | – | – | – | – | –
3 | 328724 (antisense eG*eA*e[5mC]*eA*eT*d[5mC]*dA*dT*dG*dT*dG*dA*dT*dT*dT*eG*e[5mC]*eT*e[5mC]*eA) [compound 328724] | 197 | 91 | 135 | 90 | 155 | 70 | 140 | 134 | 155 | 653 | – | – | – | – | – | –
4 | 338713 (antisense ACCTCTCAGGAAGACGGACT; all 2'-MOE, all phosphorothioate, methylation of C not given here) [compound 338713] | 187 | 152 | 101 | 72 | 93 | 95 | 109 | 104 | 194 | 426 | – | – | – | – | – | –
5 | 338690 (antisense TAGACAAAAACAGACTCTGA; all 2'-MOE, all phosphorothioate, methylation of C not given here) [compound 338690] | 194 | 124 | 123 | 78 | 149 | 91 | 112 | 110 | 190 | 413 | – | – | – | – | – | –
6 | ISIS 338797: SEQ ID NO: 624, targeted to hypothetical miRNA-144 (CTGGGGAGGGGGTTAGCGTC; all 2'-MOE, all phosphorothioate, methylation of C not given here) | – | – | – | – | – | – | – | – | – | – | induce chromosome missegregation events | – | – | – | – | –
7 | 328674 (eT*eG*e[5mC]*e[5mC]*e[5mC]*dT*dG*d[5mC]*dT*d[5mC]*dA*dG*dA*dG*d[5mC]*e[5mC]*e[5mC]*eT*eA*eG; antisense) [compound 328674] | 69 | 125 | 84 | 93 | 564 | 69 | 109 | 160 | 134 | 1663 | – | – | – | – | – | –
8 | 341787 (antisense CACAGGTTAAAGGGTCTCAGGGA; all 2'-MOE, all phosphorothioate, methylation of C not given here) [compound 341787] | 165 | 113 | 144 | 75 | 221 | 55 | 197 | 126 | 153 | 707 | – | 88 | 145 | 96 | 177 | 324
9 | 338756 (antisense TGCCCTGCTCAGAGCCCTAG; all 2'-MOE, all phosphorothioate, methylation of C not given here) [compound 338756] | 166 | 147 | 99 | 75 | 137 | 90 | 100 | 121 | 169 | 311 | – | – | – | – | – | –
10 | 338833 (antisense TCGTGCACCTGAGGAGTCTG; all 2'-MOE, all phosphorothioate, methylation of C not given here) [compound 338833] | 185 | 150 | 142 | 56 | 232 | 44 | 258 | 106 | 154 | 1091 | – | 87 | 136 | 100 | 136 | 255
